Activity calls are given as the source filed them. How the calls were made is not given here.
Test system: CCRIS mutagenicity, Ames/micronucleus/aberration tests
Assay: CCRIS mutagenicity studies
[1] = Test System: AMES SALMONELLA TYPHIMURIUM, Strain/Indicator: TA98, Metabolic Activation: NONE, Method: PREINCUBATION
[2] = Test System: AMES SALMONELLA TYPHIMURIUM, Strain/Indicator: YG1024, Metabolic Activation: NONE, Method: PREINCUBATION
[3] = Test System: AMES SALMONELLA TYPHIMURIUM, Strain/Indicator: TA100, Metabolic Activation: NONE, Method: STANDARD PLATE
[4] = Test System: AMES SALMONELLA TYPHIMURIUM, Strain/Indicator: TA100, Metabolic Activation: NONE, Method: PREINCUBATION
[5] = Test System: AMES SALMONELLA TYPHIMURIUM, Strain/Indicator: TA98, Metabolic Activation: NONE, Method: STANDARD PLATE
[6] = Test System: AMES SALMONELLA TYPHIMURIUM, Strain/Indicator: TA98, Metabolic Activation: RAT, LIVER, S-9, AROCLOR 1254, Method: STANDARD PLATE

C#CCO
mutagenic call (End Point: In vivo micronucleus, Test System: Normochromatic erythrocytes, Species: Mouse, Strain/Sex: B6C3F1/Male): inactive; negative
mutagenic call (End Point: In vivo micronucleus, Test System: Normochromatic erythrocytes, Species: Mouse, Strain/Sex: B6C3F1/female): inactive; negative. in females, statistically significant trend test but no individual gro
mutagenic call (Test System: AMES SALMONELLA TYPHIMURIUM, Strain/Indicator: TA97, Metabolic Activation: NONE): inactive; negative
mutagenic call (Test System: AMES SALMONELLA TYPHIMURIUM, Strain/Indicator: TA97, Metabolic Activation: RAT, LIVER, S-9, AROCLOR 1254): inactive; negative
mutagenic call (Test System: AMES SALMONELLA TYPHIMURIUM, Strain/Indicator: TA98, Metabolic Activation: NONE): inactive; negative
mutagenic call (Test System: AMES SALMONELLA TYPHIMURIUM, Strain/Indicator: TA98, Metabolic Activation: RAT, LIVER, S-9, AROCLOR 1254): inactive; negative
mutagenic call (Test System: AMES SALMONELLA TYPHIMURIUM, Strain/Indicator: TA100, Metabolic Activation: NONE): inactive; negative
mutagenic call (Test System: AMES SALMONELLA TYPHIMURIUM, Strain/Indicator: TA100, Metabolic Activation: RAT, LIVER, S-9, AROCLOR 1254): inactive; negative
mutagenic call (Test System: AMES SALMONELLA TYPHIMURIUM, Strain/Indicator: TA102, Metabolic Activation: NONE): inactive; negative
mutagenic call (Test System: AMES SALMONELLA TYPHIMURIUM, Strain/Indicator: TA102, Metabolic Activation: RAT, LIVER, S-9, AROCLOR 1254): inactive; negative
mutagenic call (Test System: Ames Salmonella typhimurium, Strain/Indicator: TA98, Metabolic Activation: Hamster, Liver, S9, Aroclor 1254 (30%), Method: Preincubation): inactive; negative. authors judged results as equivocal.
mutagenic call (Test System: Ames Salmonella typhimurium, Strain/Indicator: TA98, Metabolic Activation: Rat, Liver, S9, Aroclor 1254 (30%), Method: Preincubation): inactive; negative. precipitate at highest dose.
mutagenic call (Test System: Ames Salmonella typhimurium, Strain/Indicator: TA100, Metabolic Activation: Hamster, Liver, S9, Aroclor 1254 (30%), Method: Preincubation): inactive; negative
mutagenic call (Test System: Ames Salmonella typhimurium, Strain/Indicator: TA100, Metabolic Activation: Rat, Liver, S9, Aroclor 1254 (30%), Method: Preincubation): inactive; negative
mutagenic call (Test System: Ames Salmonella typhimurium, Strain/Indicator: TA1535, Metabolic Activation: None, Method: Preincubation): inactive; negative

CCCCNCCCNCCCNC(=O)c1csc(-c2csc(CCNC(=O)C(NC(=O)C(C)C(O)C(C)NC(=O)C(NC(=O)c3nc(C(CC(N)=O)NCC(N)C(N)=O)nc(N)c3C)C(OC3OC(CO)C(O)C(O)C3OC3OC(CO)C(O)C(OC(N)=O)C3O)c3cnc[nH]3)C(C)O)n2)n1 (stereo not given)
mutagenic call (Test System: AMES SALMONELLA TYPHIMURIUM, Strain/Indicator: TA102, Metabolic Activation: NONE, Method: PREINCUBATION): active; positive

Cn1c(N=[N+]=[N-])nc2ncc(-c3ccccc3)cc21
mutagenic call (Test System: AMES SALMONELLA TYPHIMURIUM, Strain/Indicator: TA98(1,8-DNP6), Metabolic Activation: NONE, Method: PREINCUBATION): active; positive
mutagenic call (Test System: AMES SALMONELLA TYPHIMURIUM, Strain/Indicator: TA98(NR), Metabolic Activation: NONE, Method: PREINCUBATION): active; positive
mutagenic call [1]: active; positive
mutagenic call [2]: active; positive

CC(C)(C)C1CCC2(CC1)CO2 (stereo not given)
mutagenic call [3]: inactive; negative

Brc1ccccc1-c1ccccc1
mutagenic call (Test System: AMES SALMONELLA TYPHIMURIUM, Strain/Indicator: TA98, Metabolic Activation: HAMSTER, LIVER, S-9, AROCLOR 1254, Method: PREINCUBATION): inactive; negative
mutagenic call [1]: inactive; negative
mutagenic call (Test System: AMES SALMONELLA TYPHIMURIUM, Strain/Indicator: TA98, Metabolic Activation: RAT, LIVER, S-9, AROCLOR 1254, Method: PREINCUBATION): inactive; negative
mutagenic call (Test System: AMES SALMONELLA TYPHIMURIUM, Strain/Indicator: TA100, Metabolic Activation: HAMSTER, LIVER, S-9, AROCLOR 1254, Method: PREINCUBATION): inactive; negative
mutagenic call [4]: inactive; negative
mutagenic call (Test System: AMES SALMONELLA TYPHIMURIUM, Strain/Indicator: TA100, Metabolic Activation: RAT, LIVER, S-9, AROCLOR 1254, Method: PREINCUBATION): inactive; negative
mutagenic call (Test System: AMES SALMONELLA TYPHIMURIUM, Strain/Indicator: TA1535, Metabolic Activation: HAMSTER, LIVER, S-9, AROCLOR 1254, Method: PREINCUBATION): inactive; negative
mutagenic call (Test System: AMES SALMONELLA TYPHIMURIUM, Strain/Indicator: TA1535, Metabolic Activation: NONE, Method: PREINCUBATION): inactive; negative
mutagenic call (Test System: AMES SALMONELLA TYPHIMURIUM, Strain/Indicator: TA1535, Metabolic Activation: RAT, LIVER, S-9, AROCLOR 1254, Method: PREINCUBATION): inactive; negative
mutagenic call (Test System: AMES SALMONELLA TYPHIMURIUM, Strain/Indicator: TA1537, Metabolic Activation: HAMSTER, LIVER, S-9, AROCLOR 1254, Method: PREINCUBATION): inactive; negative
mutagenic call (Test System: AMES SALMONELLA TYPHIMURIUM, Strain/Indicator: TA1537, Metabolic Activation: NONE, Method: PREINCUBATION): inactive; negative
mutagenic call (Test System: AMES SALMONELLA TYPHIMURIUM, Strain/Indicator: TA1537, Metabolic Activation: RAT, LIVER, S-9, AROCLOR 1254, Method: PREINCUBATION): inactive; negative

c1ccc2c(c1)ccc1cc3c(ccc4ccncc43)cc12
mutagenic call [5]: inactive; negative
mutagenic call (Test System: AMES SALMONELLA TYPHIMURIUM, Strain/Indicator: TA98, Metabolic Activation: RAT, LIVER, S-9, AROCLOR 1254 (10%), Method: STANDARD PLATE): active; positive
mutagenic call [6]: active; positive
mutagenic call [3]: inactive; negative
mutagenic call (Test System: AMES SALMONELLA TYPHIMURIUM, Strain/Indicator: TA100, Metabolic Activation: RAT, LIVER, S-9, 1254 (10%), Method: STANDARD PLATE): active; positive
mutagenic call (Test System: AMES SALMONELLA TYPHIMURIUM, Strain/Indicator: TA100, Metabolic Activation: RAT, LIVER, S-9, AROCLOR 1254, Method: STANDARD PLATE): active; positive

ONc1ccc2c(c1)Cc1ccccc1-2
mutagenic call [5]: active; positive
mutagenic call [6]: active; positive
mutagenic call (Test System: AMES SALMONELLA TYPHIMURIUM, Strain/Indicator: TA98, Metabolic Activation: S-9, Method: STANDARD PLATE): active; positive
mutagenic call [3]: active; positive
mutagenic call (Test System: AMES SALMONELLA TYPHIMURIUM, Strain/Indicator: TA100, Metabolic Activation: S-9, Method: STANDARD PLATE): active; positive
mutagenic call (Test System: AMES SALMONELLA TYPHIMURIUM, Strain/Indicator: TA1538, Metabolic Activation: NONE, Method: STANDARD PLATE): active; positive
mutagenic call (Test System: AMES SALMONELLA TYPHIMURIUM, Strain/Indicator: YG1020, Metabolic Activation: NONE, Method: PREINCUBATION): active; positive
mutagenic call [2]: active; positive
mutagenic call (Test System: AMES SALMONELLA TYPHIMURIUM, Strain/Indicator: YG1025, Metabolic Activation: NONE, Method: PREINCUBATION): active; positive
mutagenic call (Test System: AMES SALMONELLA TYPHIMURIUM, Strain/Indicator: YG1029, Metabolic Activation: NONE, Method: PREINCUBATION): active; positive
mutagenic call (Test System: CHINESE HAMSTER OVARY, Strain/Indicator: CHO-K1-BH4 (HGPRT), Metabolic Activation: NONE, Method: SUSPENSION): active; positive
mutagenic call (Test System: E. COLI, Strain/Indicator: WP2, Metabolic Activation: NONE, Method: PREINCUBATION): active; positive
mutagenic call (Test System: E. COLI, Strain/Indicator: WP2 UVRA, Metabolic Activation: NONE, Method: PREINCUBATION): active; positive

CN(C)CCNC(=O)c1cccc2[nH]c(-c3ccccc3)nc12
mutagenic call (Test System: AMES SALMONELLA TYPHIMURIUM, Strain/Indicator: TA1537, Metabolic Activation: NONE, Method: STANDARD PLATE): active; positive

C/C=C(\Cl)C=O
mutagenic call [4]: active; positive
mutagenic call (Test System: AMES SALMONELLA TYPHIMURIUM, Strain/Indicator: TA100, Metabolic Activation: NONE, Method: PREINCUBATION, LIQUID INCUBATION): active; positive

From PubChem BioAssay AID1259407 (Chemical Carcinogenesis Research Information System (CCRIS), 2018)
